Source: patent US20260315564A1, “THE USE OF TP3 (THYMOPENTIN ANALOG) BY INCREASING THE ACTIVITY AND NUMBER OF T-CELLS INVOLVED IN THE DEFENSE MECHANISM OF THE IMMUNE SYSTEM OF MAMMALS, FOR THE PREVENTION OR TREATMENT OF DISEASES TO EXTEND THE AVERAGE LIFESPAN” (priority 2023, published 2026)
Marks after values point to notes of the source that are not given here. Residues, ends and D or L forms follow the SMILES beside them.

Key:
[1] = system: healthy human lymphocytes; assay: E-rosette test, ex vivo on healthy human cells; type: cell-based; parameters: effect ex vivo on healthy human cells (rosette-forming cells): unit not given here; conditions: for effect ex vivo on healthy human cells (rosette-forming cells): control 27.8 (TP5), 30.3 (TP3)
Method: Blood from donors was used for our experiments, where the blood samples were used either from animals or human donors. The heparinized blood samples were separated on a (FicolUromiro/Pharmacia-Bracco) gradient (Boyum 1968). 2×10^6 and 107 lymphocytes/ml cells were tested in E-rosette tests, the blood donors were the following animals: • Rat: Hannover Wistar (Richter) newborn rats were used to study the maturation of the immune response. As our mothers, 12 (maximum) randomized newborns were placed (21±10C, humidity: min. 65%) in a test litter. • Guinea pig: Donkin-Hartley (Lati) 250-300 g male animals were included for the DTH reaction test. • 2.3.3/Mice: Mouse strains of different genetic backgrounds were used: CFLP (outbred) from the Lati stock), Balb/c (inbred) and Balb/c nu/nu mice from the SzBC/Szeged stock.
In a preliminary study, the ED75 inhibitory effect of azathioprine was determined (Verhagen et al., 1980) and 500 μg/ml was used during the studies. An equal volume (200 μl) of activityinhibiting and isolated cell suspension and peptides ([…]) were measured. After 1 h (370C) incubation, the cell suspensions received 200 μl of 1% SRBC suspension and then centrifuged (90×g 5 minutes), 400 μl of the supernatant was aspirated.
The number of rosette-forming cells was counted. The activity was determined as percent recovery (R %). […]

DTH reaction (PPD) = assay: Delayed-type hypersensitivity (DTH) reaction in guinea pigs; type: in vivo; conditions: n = 12/group, PPD 217.9
[2] = system: transplanted skin graft rejection; assay: Rejection of the transplanted skin graft in adult thymus-removed (Tx) mice; type: in vivo, C57BL mice (adult thymectomized); conditions: for rejection of the transplanted skin graft: n = 8/group
Method: (§1) 1.3./Determination of the number of plaque-forming cells (PFC) (using rat spleen cells) The chopped splenocytes were placed in a culture medium (Parker 199) and then shaken with a shaker for 1 minute. The cells were suctioned from the surface of the rapidly settling tissue debris. Red blood cells were removed osmotically. Cell suspensions were adjusted to 107/ml. The cell suspensions were mixed with a 15% BVVT cell suspension in a ratio of 2:1. PFC was determined with the mixture using a modified chamber technique according to Channingham et al., 1966). Before filling the chamber, 50 μl of fresh diluted guinea pig serum (1:20) was added. The chambers (2-2/slide) were incubated (370C 45′) after sealing with paraffin, the formed plaques were counted under a microscope (at 400× magnification) within 2 hours Marker tests related to the rejection reaction of an adult thymus-depleted mouse skin graft 1.4./Rejection of skin transplants in nude mice after treatment with TP fragments (Snell et al., Transplantation 5, 492, 1967).
(§2) After thymectomy, mice were treated with doses of 1 mg/kg, i.p. once a week for six weeks. Thy 1+, Lyt1+, and Lyt2+ in the spleen cells of mice at the age of 13 weeks cell proportions were determined based on what was previously described.
5. The Effect of TP3 was Tested on the Activity of the Immune System by Rejection of Skin Graft
• in adult thymectomized (Tx) C57BL mice.

[3] = system: plaque-forming cells (PFC); assay: Number of plaque-forming cells (PFC) in Balb/c nu/nu mice; type: in vivo; conditions: for number of plaque-forming cells (PFC): n = 8/group, control 55.7 (TP5), 53.0 (TP3)
Method: as §1
Mice were treated for 4 weeks 3 times a week (every other day) with TP fragments (10-9, 10-8, 10-7//10-3, 10-2, 10-1 M/animal ip. (Veys et al., 1983) at the end of the treatments ([…]), the mice were immunized (with 0.5 ml 1% BVVT suspension ip. The immune response was expressed in antibody titers as above).

[4] = system: Thy 1+, Lyt 1+, Lyt 2+ spleen cells; assay: Spleen cell subpopulations (Thy 1, Lyt 1, Lyt 2) in adult thymus-removed (Tx) mice; type: in vivo, C57BL mice (adult thymectomized); conditions: male, 1.0 mg/kg/ip, n = 8/group
Method: • D.1/Direct cytotoxicity test/for the detection of Thy, Lyt antigens (Fathman 1979, in Immunol Meth I. Eds. Lefkovits, Pernis, Acad Press, New York, pp. 212-213.) was used. Subpopulation ratios were determined from bone marrow cells, thymus, and spleen cells isolated from the lymphatic organs of mice. The cell suspensions (1.087-1.088 g/cm3) were centrifuged ona density gradient (2000 rpm, 20 minutes), and the cells were washed 3× with RPMI1640 medium containing 0.3% BSA, then adjusted to 107/ml. Thyl, Lyt 1, Lyt2 monoclonal antibodies (McAb/Ando I. (ICRF Human Tumor Immunol. UCM Med Sch. London) were obtained. 25 μl McAb and 25 ul cell suspension were incubated (60′, 40C1), after centrifugation (1250 rpm 10′), the cells were resuspended with 40 μul of diluted (1:50) rabbit complement, then incubated (370C, 60′). The cell suspensions were stained with 1:5 dilution of Eosin Y (Jansen). the ratio of live to non-living cells was determined.
as §2

CC(C)[C@H](NC(=O)[C@H](CC(=O)O)NC(=O)[C@H](CCCCN)NC(=O)[C@@H](N)CCCN=C(N)N)C(=O)N[C@@H](Cc1ccc(O)cc1)C(=O)O [TP5] (H-RKDVY-OH)
effect ex vivo on healthy human cells (rosette-forming cells) ([1]; 10^-5 mol/l): 26.9 | effect ex vivo on healthy human cells (rosette-forming cells) ([1]; 10^-6 mol/l): 24.4 | effect ex vivo on healthy human cells (rosette-forming cells) ([1]; 10^-7 mol/l): 29.4 | effect ex vivo on healthy human cells (rosette-forming cells) ([1]; 10^-8 mol/l): 27.1 | effect ex vivo on healthy human cells (rosette-forming cells) ([1]; 10^-9 mol/l): 26.1 | effect ex vivo on healthy human cells (rosette-forming cells) ([1]; 10^-11 mol/l): 25.5 | effect ex vivo on healthy human cells (rosette-forming cells) ([1]; 10^-12 mol/l): 28.4 | effect ex vivo on healthy human cells (rosette-forming cells) ([1]; 10^-13 mol/l): 25.9 | effect ex vivo on healthy human cells (rosette-forming cells) ([1]; 10^-14 mol/l): 26.1 | activity on lymphocytes from healthy individuals ([1]; in words): ineffective | DTH reaction, skin redness (bőrpir) (DTH reaction (PPD); 0.1 mg/kg/s.c.): 127.7* mm/π | DTH reaction, skin redness (bőrpir) (DTH reaction (PPD); 1.0 mg/kg/s.c.): 158.1 mm/π | DTH reaction, skin redness (bőrpir) (DTH reaction (PPD); 20.0 mg/kg/s.c.): 194.6 mm/π | rejection of the transplanted skin graft ([2]; female Tx C57BL mice, untreated control 14.5, Tx 54.6): 23.1** | rejection of the transplanted skin graft ([2]; male Tx C57BL mice, untreated control 27.8, Tx 59.8): 41.3 | recovery of T cells / shortening of skin graft survival time ([2]; male mice, rank in words): TP5>TP3 | number of plaque-forming cells (PFC) ([3]; 10^-1 M/mouse (M/eger)): 76.5* | number of plaque-forming cells (PFC) ([3]; 10^-2 M/mouse (M/eger)): 73.0* | number of plaque-forming cells (PFC) ([3]; 10^-3 M/mouse (M/eger)): 67.4 | increase in number of PFC cells ([3]; 10^-3 M/mouse/i.p.): 35% | number of plaque-forming cells (PFC) ([3]; 10^-6 M/mouse (M/eger)): 72.5* | number of plaque-forming cells (PFC) ([3]; 10^-7 M/mouse (M/eger)): 71.0* | number of plaque-forming cells (PFC) ([3]; 10^-8 M/mouse (M/eger)): 9.5 | Lyt1/Lyt2 ([4]; control 1.77, Tx 1.96): 1.63 | Lyt 2 spleen cells ([4]; control 13.7, Tx 9.6): 14.2* % | Lyt 1 spleen cells ([4]; control 24.3, Tx 18.8): 23.2* % | Thy 1 spleen cells ([4]; control 30.1, Tx 8.1): 21.2%
